Several values for one entry are separate records, joined by “and”; a condition that tells them apart may be missing. Equal entries are not always repeated.
Biological target: T1, human GPR119 (Homo sapiens, UniProt Q8TDV5)
T1 construct: host or cells: HEK293-CRE beta-lactamase cells
T1 sequence (Q8TDV5 1-335): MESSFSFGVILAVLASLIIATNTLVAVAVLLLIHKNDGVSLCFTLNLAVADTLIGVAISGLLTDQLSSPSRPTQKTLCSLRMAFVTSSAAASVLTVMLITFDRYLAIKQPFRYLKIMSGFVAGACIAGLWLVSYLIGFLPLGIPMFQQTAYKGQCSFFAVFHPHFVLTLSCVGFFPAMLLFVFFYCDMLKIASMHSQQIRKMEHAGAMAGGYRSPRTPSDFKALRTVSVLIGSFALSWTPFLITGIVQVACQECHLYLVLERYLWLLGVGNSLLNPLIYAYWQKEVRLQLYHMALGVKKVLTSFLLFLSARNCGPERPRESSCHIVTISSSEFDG
Assay: GPR119 radioligand binding assay ([3H]Cmpd A, membranes of HEK 293FT cells over-expressing hGPR119)
Conditions: competition with 3H-Cmpd A; Ki from IC50 by Cheng-Prusoff; one line per run
Protocol: HEK 293FT cells (Invitrogen, Carlsbad, Calif.) were grown in a shake flask in 293Freestyle medium (Invitrogen) supplemented with 50 microg/mL neomycin and 10 mM HEPES (37 C, 8% carbon dioxide, shaking). The cells were centrifuged gently (approximately 500×g, 10 minutes) and the pellet resuspended in a mixture of Dulbecco's PBS(minus Mg++/−Ca++) supplemented with 18% fetal bovine serum (Sigma Aldrich) and P1 virus such that the multiplicity of infection (MOI) was 10 and the final cell density was 1.3×10^6/ml (total volume 2.5 liters). The cells were transferred to a 5 liter Wave Bioreactor Wavebag (Wave Technologies, MA) and incubated for 4 hours at 27 degrees Celsius (17 rocks/min, 7 degrees platform angle); at the end of the incubation period, an equal volume (2.5 liters) of 293Freestyle medium supplemented with 30 mM sodium butyrate (Sigma Aldrich) was added (final concentration=15 mM), and the cells were grown for 20 hours (37 degrees Celsius, 8% CO2 [0.2 liters/min}, 25 rocks/minute, 7 degrees platform angle). Cells were harvested via centrifugation (3,000×g, 10 minutes), washed once on DPBS (minus Ca++/Mg++), resuspended in 0.25M sucrose, 25 mM HEPES, 0.5 mM EDTA, pH 7.4 and frozen at −80 degrees Celsius.
The frozen cells were thawed on ice and centrifuged at 700×g (1400 rpm) for 10 minutes at 4 degrees Celsius. The cell pellet was resuspended in 20 ml phosphate-buffered saline, and centrifuged at 1400 rpm for 10 minutes. The cell pellet was then resuspended in homogenization buffer (10 mM HEPES (Gibco #15630), pH 7.5, 1 mM EDTA (BioSolutions, #BIO260-15), 1 mM EGTA (Sigma, #E-4378), 0.01 mg/ml benzamidine (Sigma #B 6506), 0.01 mg/ml bacitracin (Sigma #B 0125), 0.005 mg/ml leupeptin (Sigma #L 8511), 0.005 mg/ml aprotinin (Sigma #A 1153)) and incubated on ice for 10 minutes. Cells were then lysed with 15 gentle strokes of a tight-fitting glass Dounce homogenizer. The homogenate was centrifuged at 1000×g (2200 rpm) for 10 minutes at 4 degrees Celsius. The supernatant was transferred into fresh centrifuge tubes on ice. The cell pellet was resuspended in homogenization buffer, and centrifuged again at 1000×g (2200 rpm) for 10 minutes at 4 degrees Celsius after which the supernatant was removed and the pellet resuspended in homogenization buffer. This process was repeated a third time, after which the supernatants were combined, Benzonase (Novagen #71206) and MgCl2 (Fluka #63020) were added to final concentrations of 1 U/ml and 6 mM, respectively, and incubated on ice for one hour. The solution was then centrifuged at 25,000×g (15000 rpm) for 20 minutes at 4 degrees Celsius, the supernatant was discarded, and the pellet was resuspended in fresh homogenization buffer (minus Benzonase and MgCl2). After repeating the 25,000×g centrifugation step, the final membrane pellet was resuspended in homogenization buffer and frozen at −80 degrees Celsius. The protein concentration was determined using the Pierce BCA protein assay kit (Pierce reagents A #23223 and B #23224).
Test compounds were serially diluted in 100% DMSO (J. T. Baker #922401). 2 microL of each dilution was added to appropriate wells of a 96-well plate (each concentration in triplicate). Unlabeled Cmpd A, at a final concentration of 10 microM, was used to determine non-specific binding.
^3H-Cmpd A was diluted in binding buffer (50 mM Tris-HCl, pH 7.5, (Sigma #T7443), 10 mM MgCl2 (Fluka 63020), 1 mM EDTA (BioSolutions #BIO260-15), 0.15% bovine serum albumin (Sigma #A7511), 0.01 mg/mL benzamidine (Sigma #B 6506), 0.01 mg/mL bacitracin (Sigma #B 0125), 0.005 mg/mL leupeptin (Sigma #L 8511), 0.005 mg/mL aprotinin (Sigma #A 1153)) to a concentration of 60 nM, and 100 microL added to all wells of 96-well plate (Nalge Nunc #267245).
Membranes expressing GPR119 were thawed and diluted to a final concentration of 20 μg/100 microL per well in Binding Buffer, and 100 microL of diluted membranes were added to each well of 96-well plate. […]

SMILES | Ki
Cc1c(O[C@H]2CCN(C(=O)OC(C)(C)C)C[C@H]2F)ncnc1N1Cc2cnn(C)c2C1 (racemic) [Example 6, tert-Butyl (3,4-cis)-3-fluoro-4-{[5-methyl-6-(1-methyl-4,6-dihydropyrrolo[3,4-c]pyrazol-5(1H)-yl)pyrimidin-4-yl]oxy}piperidine-1-carboxylate (racemic)] | 36 nM
Cc1c(O[C@H]2CCN(C(=O)OC3(C)CC3)C[C@H]2F)ncnc1N1Cc2cnn(C)c2C1 (racemic) [Example 7, 1-Methylcyclopropyyl (3,4-cis)-3-fluoro-4-{[5-methyl-6-(1-methyl-4,6-dihydropyrrolo[3,4-c]pyrazol-5(1H)-yl)pyrimidin-4-yl]oxy}piperidine-1-carboxylate (racemic)] | 3.4 nM and 11 nM
Cc1c(O[C@H]2CCN(C(=O)OC(C)(C)C)C[C@@H]2F)ncnc1N1Cc2cnn(C)c2C1 (racemic) [Example 8, tert-Butyl (3,4-trans)-3-fluoro-4-{[5-methyl-6-(1-methyl-4,6-dihydropyrrolo[3,4-c]pyrazol-5(1H)-yl)pyrimidin-4-yl]oxy}piperidine-1-carboxylate (racemic)] | 130 nM
Cc1c(OC2CCN(C(=O)OC(C)C)CC2)ncnc1N1Cc2cnn(C)c2C1 [Example 2, Isopropyyl 4-{[5-methyl-6-(1-methyl-4,6-dihydropyrrolo[3,4-c]pyrazol-5(1H)-yl)pyrimidin-4-yl]oxy}piperidine-1-carboxylate] | 502 nM and 229 nM and 171 nM
CC(C)OC(=O)N1CCC(Oc2ncnc(N3Cc4cnn(C)c4C3)c2C#N)CC1 [Example 3, Isopropyyl 4-{[5-cyano-6-(1-methyl-4,6-dihydropyrrolo[3,4-c]pyrazol-5(1H)-yl)pyrimidin-4-yl]oxy}piperidine-1-carboxylate] | 233 nM
Cc1c(O[C@H]2[C@@H]3COC[C@H]2CN(C(=O)OC(C)(C)C)C3)ncnc1N1Cc2cnn(C)c2C1 [Example 9, tert-Butyl (9-anti)-9-{[5-methyl-6-(1-methyl-4,6-dihydropyrrolo[3,4-c]pyrazol-5(1H)-yl)pyrimidin-4-yl]oxy}-3-oxa-7-azabicyclo[3.3.1]nonane-7-carboxylate] | 51 nM
